# Experimental data: patent publication US12258336B2, “Preparation of seimicarbazide-sensitive amine oxidase inhibitor and use thereof” (SHANGHAI ENNOVABIO PHARMACEUTICALS CO., LTD., priority 2018, dated 2025)
# What was measured:
# [1] = target: T1, Recombinant human AOC2 protein (Homo sapiens, UniProt O75106); test: Inhibitory activity on AOC2; format: biochemical
# T1 construct: Eli Lilly (provided, not a catalogue product)
# T1 sequence (O75106 1-756): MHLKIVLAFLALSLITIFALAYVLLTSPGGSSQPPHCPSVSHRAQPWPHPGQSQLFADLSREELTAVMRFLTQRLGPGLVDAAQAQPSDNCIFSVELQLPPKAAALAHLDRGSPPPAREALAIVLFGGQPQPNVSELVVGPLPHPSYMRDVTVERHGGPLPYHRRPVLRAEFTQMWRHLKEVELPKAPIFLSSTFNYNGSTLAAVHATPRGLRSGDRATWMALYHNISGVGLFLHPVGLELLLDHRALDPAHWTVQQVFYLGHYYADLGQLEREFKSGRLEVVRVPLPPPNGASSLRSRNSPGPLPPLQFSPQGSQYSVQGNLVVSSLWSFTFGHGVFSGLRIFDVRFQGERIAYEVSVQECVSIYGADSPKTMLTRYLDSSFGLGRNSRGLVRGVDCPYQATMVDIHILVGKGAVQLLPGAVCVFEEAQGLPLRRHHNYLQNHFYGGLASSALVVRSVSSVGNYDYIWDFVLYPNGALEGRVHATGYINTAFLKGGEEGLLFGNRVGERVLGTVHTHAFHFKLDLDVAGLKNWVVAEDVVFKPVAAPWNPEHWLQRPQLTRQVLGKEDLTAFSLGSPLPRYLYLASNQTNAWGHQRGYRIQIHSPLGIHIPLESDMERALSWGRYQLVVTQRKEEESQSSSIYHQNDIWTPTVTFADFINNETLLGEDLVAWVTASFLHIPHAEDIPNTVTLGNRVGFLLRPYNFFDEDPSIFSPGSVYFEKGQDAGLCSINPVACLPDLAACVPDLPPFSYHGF
# Experimental: Recombinant human AOC2 protein (provided by Eli Lilly). Other reagents are the same as those in Biological Test Example 1. The final concentration of test compound in 10 μL reaction system was 100 μM to 5 nM when AOC2 was detected, while other reaction conditions were the same as those in Biological Test Example 1. Data analysis and IC50 calculation method were the same as those in Biological Test Example 1.
# [2] = target: T2, Recombinant human SSAO protein (Homo sapiens, UniProt Q16853); test: In vitro inhibitory activity on SSAO/VAP-1 (MAO-Glo assay), human; format: biochemical
# T2 construct: Eli Lilly (provided, not a catalogue product)
# T2 sequence (Q16853 1-763): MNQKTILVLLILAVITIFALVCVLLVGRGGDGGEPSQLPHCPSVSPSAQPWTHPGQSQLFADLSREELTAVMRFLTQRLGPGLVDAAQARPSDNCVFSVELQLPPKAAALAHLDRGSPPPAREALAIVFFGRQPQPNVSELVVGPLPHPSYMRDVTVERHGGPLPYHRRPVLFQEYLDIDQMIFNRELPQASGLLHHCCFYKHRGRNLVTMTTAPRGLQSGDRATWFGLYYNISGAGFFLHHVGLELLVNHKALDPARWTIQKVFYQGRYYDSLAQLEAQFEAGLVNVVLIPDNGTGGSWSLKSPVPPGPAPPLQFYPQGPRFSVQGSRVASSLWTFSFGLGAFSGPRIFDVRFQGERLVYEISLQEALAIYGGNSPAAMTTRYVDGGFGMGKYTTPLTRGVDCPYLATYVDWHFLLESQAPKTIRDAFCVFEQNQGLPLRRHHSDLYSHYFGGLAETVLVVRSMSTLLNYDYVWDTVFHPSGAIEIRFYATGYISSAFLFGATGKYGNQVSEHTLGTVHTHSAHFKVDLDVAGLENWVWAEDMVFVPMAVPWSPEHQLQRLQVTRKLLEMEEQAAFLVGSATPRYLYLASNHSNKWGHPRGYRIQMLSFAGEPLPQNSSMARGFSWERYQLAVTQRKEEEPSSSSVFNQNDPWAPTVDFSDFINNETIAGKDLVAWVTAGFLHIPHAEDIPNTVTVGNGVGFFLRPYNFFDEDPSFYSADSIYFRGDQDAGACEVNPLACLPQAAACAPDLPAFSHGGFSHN
# Experimental: This assay was used to evaluate the in vitro inhibitory activity of the compounds on SSAO/VAP-1 of different species. Recombinant human SSAO protein, mouse SSAO protein or rat SSAO protein (provided by Eli Lilly) were used. The enzyme activity detection kit, MAO-Glo Assay kit (V1402) was purchased from Promega. Enzyme reaction buffer (50 mM HEPES, 120 mM NaCl, 5 mM KCl, 2 mM CaCl2, 1.4 mM MgCl2, 0.001% Tween-20, pH7.4) was prepared. The test compound was dissolved in DMSO and diluted by 3-fold concentration in gradient. The final concentration of test compound in a 10 μL reaction system was 1 μM to 0.05 nM when SSAO was detected. The content of DMSO in the detection reaction was 1%. After the solution of test compound in DMSO was diluted in the enzyme reaction buffer at a volume ratio of 1:25, 2.5 μL of which was added to each well of detection plate, two replicates for each concentration. 5 μL of SSAO protein diluted in the enzyme reaction buffer was added to each well, the final concentration of which was 10 nM to 80 nM in 10 μL reaction system. The mixture was incubated at room temperature for 10 minutes. 2.5 μL of the reaction substrate diluted in the enzyme reaction buffer was added to each well, the final concentration of which was 10 μM in 10 μL reaction system. After the mixture was reacted at room temperature for 120 minutes, 10 μL of detection reagent was added to each well. The reaction solution was incubated for 20 minutes at room temperature, and the plate was read with Synergy Neo 2 for detection. The value was converted into inhibition rate by the following formula: Inhibition rate=(Signalpositive−Signaltest)/(Signalpositive−Signalnegative)×100%
# Signalpositive was positive control without test compound. Signalnegative was negative control without test compound and SSAO enzyme, and Signaltest was detection value of each compound at different concentrations. IC50 value was calculated by using 4 parameter curve fitting.
IC50 [1],IC50 [2],SMILES
100 to 1000 nM,< 10 nM,"CC1CN(c2ncc(OC/C(=C/F)CN)cn2)CC(C)N1C1COC1 (stereo not shown) [Example 1, (E)-2-(((2-(3,5-dimethyl-4-(oxbutan-3-yl)piperazin-1-yl)pyrimidin-5-yl)oxo)methyl)-3-fluoroprop-2-en-1-amine]"
> 1000 nM,< 10 nM,COC1CC2CC1CN2c1ncc(OC/C(=C/F)CN)cn1 (stereo not shown) [Example 2]
> 1000 nM,< 10 nM,NC/C(=C\F)COc1cnc(N2CCC3(CC2)COC3)nc1 [Example 3]
> 1000 nM,< 10 nM,"NC/C(=C\F)COc1cnc(N2CCN(C3COC3)CC2)nc1 [Example 4, (E)-3-fluoro-2-(((2-(4-(oxbutan-3-yl)piperazin-1-yl)pyrimidin-5-yl)oxo)methyl)prop-2-en-1-amine]"
100 to 1000 nM,10 to 50 nM,CC1(C)CN(C2COC2)CCN1c1ncc(OC/C(=C/F)CN)cn1 [Example 5]
> 1000 nM,> 50 nM,N#Cc1cc(OC/C(=C/F)CN)cnc1N1CCN(C2COC2)CC1 [Example 7]
> 1000 nM,< 10 nM,NC/C(=C/F)COc1cnc(N2CCN(C3COC3)CC2)nc1 [Example 8]
100 to 1000 nM,< 10 nM,NC/C(=C\F)COc1cnc(N2CCN(c3cnc(N4CCN(C5COC5)CC4)nc3)CC2)nc1 [Example 9]
> 1000 nM,10 to 50 nM,CC1(C)CN(c2ncc(OC/C(=C/F)CN)cn2)CCN1C1COC1 [Example 10]

SMILES,IC50 [1],IC50 [2]
NC/C(=C\F)COc1cnc(N2CC3CCC(C2)N3C2COC2)nc1 [Example 6],100 to 1000 nM,10 to 50 nM
COC1CC2CCC(C1)N2c1ncc(OC/C(=C/F)CN)cn1 (stereo not shown) [Example 12],> 1000 nM,< 10 nM
